Assay results published in the NIST ThermoML archive (doi:10.1021/acs.jced.8b00854).

Key:
[1] = refractive index (Na D-line) (dimensionless); xn = mol fraction of the nth substance listed; settings: 100 kPa, Liquid, Standard Abbe refractometry
[2] = xn = mol fraction of the nth substance listed; settings: 100 kPa, Liquid, Vibrating tube method

CCn1cc[n+](C)c1.O=S(=O)([O-])C(F)(F)F [1-ethyl-3-methylimidazolium trifluoromethanesulfonate] + O
Settings | mass density, [2] [kg/m3] | refractive index, [1]
293.15 K, x1 = 0.1001 | 1209.27 | 1.3885
293.15 K, x1 = 0.2002 | 1281.52 | 1.406
293.15 K, x1 = 0.3005 | 1315.51 | 1.4155
293.15 K, x1 = 0.4002 | 1336.6 | 1.421
293.15 K, x1 = 0.5003 | 1352.45 | 1.425
293.15 K, x1 = 0.5997 | 1364.43 | 1.4275
293.15 K, x1 = 0.6996 | 1372.69 | 1.43
293.15 K, x1 = 0.8011 | 1379.1 | 1.4315
293.15 K, x1 = 0.8992 | 1384.17 | 1.4325
303.15 K, x1 = 0.1001 | 1201.8 | 1.3865
303.15 K, x1 = 0.2002 | 1272.85 | 1.4055
303.15 K, x1 = 0.3005 | 1307.15 | 1.414
303.15 K, x1 = 0.4002 | 1328.01 | 1.4175
303.15 K, x1 = 0.5003 | 1343.96 | 1.423
303.15 K, x1 = 0.5997 | 1356.16 | 1.4255
303.15 K, x1 = 0.6996 | 1364.59 | 1.4275
303.15 K, x1 = 0.8011 | 1370.87 | 1.4295
303.15 K, x1 = 0.8992 | 1375.74 | 1.43
313.15 K, x1 = 0.1001 | 1193.23 | 1.386
313.15 K, x1 = 0.2002 | 1263.86 | 1.403
313.15 K, x1 = 0.3005 | 1298.67 | 1.412
313.15 K, x1 = 0.4002 | 1319.89 | 1.415
313.15 K, x1 = 0.5003 | 1335.41 | 1.421
313.15 K, x1 = 0.5997 | 1347.44 | 1.4235
313.15 K, x1 = 0.6996 | 1355.79 | 1.4255
313.15 K, x1 = 0.8011 | 1362.45 | 1.427
313.15 K, x1 = 0.8992 | 1367.34 | 1.4285
323.15 K, x1 = 0.1001 | 1184.96 | 1.3855
323.15 K, x1 = 0.2002 | 1254.13 | 1.4025
323.15 K, x1 = 0.3005 | 1289.63 | 1.411
323.15 K, x1 = 0.4002 | 1311.02 | 1.414
323.15 K, x1 = 0.5003 | 1326.85 | 1.42
323.15 K, x1 = 0.5997 | 1338.82 | 1.422
323.15 K, x1 = 0.6996 | 1347.42 | 1.4235
323.15 K, x1 = 0.8011 | 1353.98 | 1.4255
323.15 K, x1 = 0.8992 | 1359.01 | 1.426
333.15 K, x1 = 0.1001 | 1175.32 | 1.385
333.15 K, x1 = 0.2002 | 1243.01 | 1.4005
333.15 K, x1 = 0.3005 | 1279.6 | 1.4095
333.15 K, x1 = 0.4002 | 1301.89 | 1.413
333.15 K, x1 = 0.5003 | 1318.27 | 1.418
333.15 K, x1 = 0.5997 | 1329.91 | 1.418
333.15 K, x1 = 0.6996 | 1338.78 | 1.421
333.15 K, x1 = 0.8011 | 1345.55 | 1.423
333.15 K, x1 = 0.8992 | 1350.72 | 1.4237
343.15 K, x1 = 0.1001 | 1162.52 | 1.385
343.15 K, x1 = 0.2002 | 1232.07 | 1.3995
343.15 K, x1 = 0.3005 | 1269.41 | 1.409
343.15 K, x1 = 0.4002 | 1292.35 | 1.413
343.15 K, x1 = 0.5003 | 1309.53 | 1.417
343.15 K, x1 = 0.5997 | 1321.23 | 1.4175
343.15 K, x1 = 0.6996 | 1330.17 | 1.419
343.15 K, x1 = 0.8011 | 1336.93 | 1.421
343.15 K, x1 = 0.8992 | 1342.48 | 1.4215
